# Read-outs that look alike come from different tables or passages of the source.
# What was measured:
# [1] = molecular target: T1, RORγ (UniProt P51449); experiment: RORγ Gal4 Reporter Gene Assay in 293T cells (firefly and renilla luciferase); assay type: cell-based, human
# T1 sequence (P51449 1-518): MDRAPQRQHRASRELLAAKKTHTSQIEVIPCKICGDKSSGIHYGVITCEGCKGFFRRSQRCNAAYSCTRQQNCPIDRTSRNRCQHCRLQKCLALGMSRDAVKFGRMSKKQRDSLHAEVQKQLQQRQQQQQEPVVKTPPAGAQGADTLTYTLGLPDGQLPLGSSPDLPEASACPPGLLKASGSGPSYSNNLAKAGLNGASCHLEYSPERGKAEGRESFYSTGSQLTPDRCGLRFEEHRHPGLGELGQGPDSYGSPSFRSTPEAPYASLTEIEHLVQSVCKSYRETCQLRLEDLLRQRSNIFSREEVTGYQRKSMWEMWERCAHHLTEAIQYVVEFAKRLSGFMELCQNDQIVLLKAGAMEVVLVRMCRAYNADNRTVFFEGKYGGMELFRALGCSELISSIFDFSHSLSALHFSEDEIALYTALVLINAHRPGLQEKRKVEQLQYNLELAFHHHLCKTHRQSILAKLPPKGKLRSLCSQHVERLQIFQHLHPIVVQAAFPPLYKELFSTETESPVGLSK
# [2] = molecular target: T2, RORγ ligand binding domain (LBD) (Homo sapiens, UniProt P51449); experiment: TR-FRET Activity Assay (ligand sensing, RORγ-LBD / coactivator peptide interaction, LANCE); assay type: biochemical
# T2 construct: made in house; host or cells: E. coli BL-21 (BL3), vector pDEST15
# T2 sequence (P51449 269-508 limits assumed): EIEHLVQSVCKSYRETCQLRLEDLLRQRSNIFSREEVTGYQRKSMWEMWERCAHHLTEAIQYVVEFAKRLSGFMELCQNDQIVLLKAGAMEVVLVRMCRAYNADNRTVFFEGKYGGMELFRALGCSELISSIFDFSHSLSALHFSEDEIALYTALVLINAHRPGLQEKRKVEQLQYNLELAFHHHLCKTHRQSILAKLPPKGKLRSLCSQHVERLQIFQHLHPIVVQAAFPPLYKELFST
# [3] = second value of the cell, Gal4 reporter gene assay in 293T cells, firefly luciferase
# [4] = third value of the cell, Gal4 reporter gene assay in 293T cells, renilla normalised luciferase
# [5] = first value of the cell FRET/FF/REN, TR-FRET activity assay, read-out: pIC50 (FRET) (converted)
Compound,pIC50 (FF) [1],pIC50 (REN) [1],IC50 [2] [nM],"pIC50 (FF) [1, 3]","pIC50 (REN) [1, 4]","IC50 [2, 5] [nM]"
Cc1c(C(=O)NCC2CCOCC2)cc(-c2cc(C(C)(C)C)cc(C3(C)CC3)c2)n1CC1CCCCC1 [17/63],6.7/7.7/7.6,6.7/7.7/7.6,200,–,–,–
Cc1c(C(=O)NCC2(O)CCOCC2)cc(-c2cc(C(C)(C)C)cc(C3(C)CC3)c2)n1CC1CCCCC1 [17/64],–,–,–,7.8,7.7,316
Cc1c(C(=O)N[C@H]2CCOC2)cc(-c2cc(C(C)(C)C)cc(C3(C)CC3)c2)n1CC1CCCCC1 [17/65],–,–,200,7.7,7.7,–
Cc1c(C(=O)N[C@@H]2CCOC2)cc(-c2cc(C(C)(C)C)cc(C3(C)CC3)c2)n1CC1CCCCC1 [17/66],–,–,158,7.4,7.4,–
Cc1c(C(=O)NCC(C)(C)NS(C)(=O)=O)cc(-c2cc(C(C)(C)C)cc(C3(C)CC3)c2)n1CC1CCCCC1 [17/67],6.6/7.7/7.5,6.6/7.7/7.5,251,–,–,–
COC(C)(C)CNC(=O)c1cc(-c2cc(C(C)(C)C)cc(C3(C)CC3)c2)n(CC2CCCCC2)c1C [17/68],6.8/7.4/7.5,6.8/7.4/7.5,158,–,–,–
Cc1c(C(=O)NC2CCOCC2)cc(-c2ccc(S(=O)(=O)N3CCCCC3(C)C)c(C(F)(F)F)c2)n1CC1CCCCC1 [17/69],–,–,–,7.2,7.4,> 20000
Cc1c(C(=O)NCCc2nnn[nH]2)cc(-c2cc(C(C)(C)C)cc(C3(C)CC3)c2)n1CC1CCCCC1 [17/70],–,–,–,7.9,7.9,1260
Cc1c(C(=O)NCc2nnn[nH]2)cc(-c2cc(C(C)(C)C)cc(C3(C)CC3)c2)n1CC1CCCCC1 [17/71],–,–,–,6.9,6.8,1580
Cc1c(C(=O)NCCC(C)(C)C(=O)O)cc(-c2cc(C(C)(C)C)cc(C3(C)CC3)c2)n1CC1CCCCC1 [17/73],–,–,–,7.2,7.3,1000
Cc1c(C(=O)NCCC(C)(C)C(N)=O)cc(-c2cc(C(C)(C)C)cc(C3(C)CC3)c2)n1CC1CCCCC1 [17/74],6.3/7.3/7.2,6.3/7.3/7.2,501,–,–,–
Cc1c(C(=O)NC2CCOCC2)cc(-c2cc(C(=O)NC(C)(C)C)cc(C(=O)NC(C)(C)C)c2)n1CC1CCCCC1 [17/75],5.2/5.8/5.8,5.2/5.8/5.8,6310,–,–,–
Cc1c(C(=O)NCC(C)(C)O)cc(-c2cccc3c(S(=O)(=O)NC(C)(C)C)cccc23)n1CC1CCCCC1 [17/76],–,–,–,6.9,6.9,2000
Cc1c(C(=O)NCC(C)(C)c2nn[nH]n2)cc(-c2cc(C(C)(C)C)cc(C3(C)CC3)c2)n1CC1CCCCC1 [17/77],–,–,–,8.0,8.1,794
Cc1c(C(=O)N(C)CC2(CO)COC2)cc(-c2cc(C(C)(C)C)cc(C3(C)CC3)c2)n1CC1CCCCC1 [17/78],6.3/7.3/7.3,6.3/7.3/7.3,501,–,–,–
Cc1c(C(=O)NCCCCC[S+](C)[O-])cc(-c2cc(C(C)(C)C)c3c(c2)C2(CCO3)CC2)n1CC1CCCCC1 (stereo not drawn) [17/79],5.8/6.4/6.3,5.8/6.4/6.3,1580,–,–,–
Cc1c(C(=O)NCCCS(C)(=O)=O)cc(-c2cc(C(C)(C)C)c3c(c2)C2(CCO3)CC2)n1CC1CCCCC1 [17/80],–,–,–,6.9,7.0,501
Cc1c(C(=O)NCC2(O)CCS(=O)(=O)CC2)cc(-c2cc(C(C)(C)C)c3c(c2)C2(CCO3)CC2)n1CC1CCCCC1 [17/81],6.2/7.1/7.1,6.2/7.1/7.1,631,–,–,–
Cc1c(-c2cc(C(=O)NCC(C)(C)O)c(C)n2CC2CCCCC2)nc(C2(C)CC2)nc1C(C)(C)C [17/82],–,–,–,6.7,6.7,794
CCC(C)(C)NS(=O)(=O)c1ccc(-c2cc(C(=O)NC3CCOCC3)c(C)n2CC2CCCCC2)cc1C(F)(F)F [17/83],–,–,–,8.2,8.3,126
Cc1c(C(=O)NC2CCOCC2)cc(-c2ccc(S(=O)(=O)N3CCCC3(C)C)c(C(F)(F)F)c2)n1CC1CCCCC1 [17/84],–,–,–,7.2,7.2,> 20000

# From patent US9815851B2, “Pyrrolo carboxamides as modulators of orphan nuclear receptor RAR-related orphan receptor-gamma (RORγ, NR1F3) activity and for the treatment of chronic inflammatory and autoimmune diseases” (PHENEX PHARMACEUTICALS AG, priority 2011, dated 2017)
